We go through 16 compounds from patent US7560552B2, “Thiopyrimidine and isothiazolopyrimidine kinase inhibitors” (Abbott Laboratories, priority 2002, dated 2009).

A value given as a limit tells only on which side of the number the result lay.

What is called melting point is the temperature, or range, at which the solid turns liquid. The compound `CC(C)c1sc2ncnc(N)c2c1-c1ccc(NC(=O)c2ccccc2)cc1` [Example 8, N-[4-(4-amino-6-isopropylthieno[2,3-d]pyrimidin-5-yl)phenyl]benzamide] gave a melting point above 250 °C.
The result for `Cc1ccc(NC(=O)Nc2ccc(-c3c(Cc4ccccc4)sc4ncnc(N)c34)cc2)cc1` [Example 9, N-[4-(4-amino-6-benzylthieno[2,3-d]pyrimidin-5-yl)phenyl]-N′-(4-methylphenyl)urea] reads 169 to 173 °C.
The result for `Cc1ccccc1NC(=O)Nc1ccc(-c2c(Cc3ccccc3)sc3ncnc(N)c23)cc1` [Example 11, N-[4-(4-amino-6-benzylthieno[2,3-d]pyrimidin-5-yl)phenyl]-N′-(2-methylphenyl)urea] reads 245 to 248 °C; that for `Cc1ccccc1NC(=O)Nc1ccc(-c2c(C(C)C)sc3ncnc(N)c23)cc1` [Example 12, N-[4-(4-amino-6-isopropylthieno[2,3-d]pyrimidin-5-yl)phenyl]-N′-(2-methylphenyl)urea], 233 to 234 °C; that for `Nc1ncnc2sc(Cc3ccccc3)c(-c3ccc(NS(=O)(=O)c4ccccc4)cc3)c12` [Example 13, N-[4-(4-amino-6-benzylthieno[2,3-d]pyrimidin-5-yl)phenyl]benzenesulfonamide], 100 to 105 °C.
In the case of `Cc1ccccc1NC(=O)Nc1ccc(-c2c(CCO)sc3ncnc(N)c23)cc1` [Example 107, N-{4-[4-amino-6-(2-hydroxyethyl)thieno[2,3-d]pyrimidin-5-yl]phenyl}-N′-(2-methylphenyl)urea] it was 159 to 162 °C.
For `COCCc1sc2ncnc(N)c2c1-c1ccc(NC(=O)Nc2ccc(C)cc2)cc1` [Example 110, N-{4-[4-amino-6-(2-methoxyethyl)thieno[2,3-d]pyrimidin-5-yl]phenyl}-N′-(4-methylphenyl)urea], the melting point is 128 to 132 °C.
`COCCc1sc2ncnc(N)c2c1-c1ccc(NS(=O)(=O)c2ccccc2)cc1` [Example 111, N-{4-[4-amino-6-(2-methoxyethyl)thieno[2,3-d]pyrimidin-5-yl]phenyl}benzenesulfonamide]: the melting point fell in the range of 206 to 208 °C.
Compound `COCCc1sc2ncnc(N)c2c1-c1ccc(NC(=O)Cc2cccc(C)c2)cc1` [Example 112, N-{4-[4-amino-6-(2-methoxyethyl)thieno[2,3-d]pyrimidin-5-yl]phenyl}-2-(3-methylphenyl)acetamide] returned a melting point of 200 to 202 °C.
The result for `COCCc1sc2ncnc(N)c2c1-c1ccc(NC(=O)c2ccccc2)cc1` [Example 113, N-{4-[4-amino-6-(2-methoxyethyl)thieno[2,3-d]pyrimidin-5-yl]phenyl}benzamide] reads 200 to 202 °C; that for `Nc1ncnc2sc(Cc3cccnc3)c(-c3ccc(NC(=O)Nc4cccc(Cl)c4)cc3)c12` [Example 117, N-{4-[4-amino-6-(pyridin-3-ylmethyl)thieno[2,3-d]pyrimidin-5-yl]phenyl}-N′-(3-chlorophenyl)urea], 169 to 172 °C.
The result for `COCCc1sc2ncnc(N)c2c1-c1ccc(NC(=O)Nc2ccccc2C)cc1` [Example 137, N-{4-[4-amino-6-(2-methoxyethyl)thieno[2,3-d]pyrimidin-5-yl]phenyl}-N′-(2-methylphenyl)urea] reads 217 to 219 °C; that for `Nc1ncnc2sc(CCO)c(-c3ccc(NC(=O)Nc4cccc(C(F)(F)F)c4)cc3)c12` [Example 139, N-{4-[4-amino-6-(2-hydroxyethyl)thieno[2,3-d]pyrimidin-5-yl]phenyl}-N′-[3-(trifluoromethyl)phenyl]urea], 155 to 158 °C; that for `COCCc1sc2ncnc(N)c2c1-c1ccc(NC(=O)Nc2cc(C(F)(F)F)ccc2F)cc1` [Example 140, N-{4-[4-amino-6-(2-methoxyethyl)thieno[2,3-d]pyrimidin-5-yl]phenyl}-N′-[2-fluoro-5-(trifluoromethyl)phenyl]urea], 209 to 211 °C.
The result for `Nc1ncnc2sc(Cc3ccncc3)c(-c3ccc(NC(=O)Nc4cccc(C(F)(F)F)c4)cc3)c12` [Example 142, N-{4-[4-amino-6-(pyridin-4-ylmethyl)thieno[2,3-d]pyrimidin-5-yl]phenyl}-N′-[3-(trifluoromethyl)phenyl]urea] reads 162 to 166 °C.
`Cc1cccc(CC(=O)Nc2ccc(-c3c(CCO)sc4ncnc(N)c34)cc2)c1` [Example 350, N-{4-[4-amino-6-(2-hydroxyethyl)thieno[2,3-d]pyrimidin-5-yl]phenyl}-2-(3-methylphenyl)acetamide] displayed a melting point of 142 to 144 °C.
